What was measured:
[1] = test system: A/J mice; test: Cigarette smoke model; type: in vivo; conditions: tobacco smoke
Description: A/J mice (males, 5 weeks old) were exposed to cigarette smoke (4% cigarette smoke, diluted with air) for 30 min/day for 11 days using a Tobacco Smoke Inhalation Experiment System for small animals (Model SIS-CS; Sibata Scientific Technology, Tokyo, Japan). Test substances were administered intra-nasally (35 μL of solution in 50% DMSO/PBS) once daily for 3 days after the final cigarette smoke exposure. At 12 hr after the last dosing, each of the animals was anesthetized, the trachea cannulated and bronchoalveolar lavage fluid (BALF) was collected. The numbers of alveolar macrophages and neutrophils were determined by FACS analysis (EPICS® ALTRA II, Beckman Coulter, Inc., Fullerton, Calif., USA) using anti-mouse MOMA2 antibody (macrophage) or anti-mouse 7/4 antibody (neutrophil). BALF was centrifuged and the supernatant was collected. The level of keratinocyte chemoattractant (KC; CXCL1) in BALF was quantitated using a Quentikine® mouse KC ELISA kit (R&D systems, Inc., Minneapolis, Minn., USA).

[2] = test system: d-U937 cells; test: Cell viability: MTT assay; type: cell-based, human; conditions: 1 μg/mL
Description: Differentiated U937 cells were pre-incubated with each test compound (final concentration 1 μg/mL or 10 μg/mL in 200 μL media indicated below) under two protocols: the first for 4 hr in 5% FCS RPMI1640 media and the second in 10% FCS RPMI1640 media for 24 h. The supernatant was replaced with new media (200 μL) and MTT stock solution (10 μL, 5 mg/mL) was added to each well. After incubation for 1 hr the media were removed, DMSO (200 μL) was added to each well and the plates were shaken lightly for 1 hr prior to reading the absorbance at 550 nm. The percentage loss of cell viability was calculated for each well relative to vehicle (0.5% DMSO) treatment. Consequently an apparent increase in cell viability for drug treatment relative to vehicle is tabulated as a negative percentage.

| Structure (SMILES) | MTT Assay Cell viability at time point in d-U937 Cells 4 h [2] | MTT Assay Cell viability at time point in d-U937 Cells 24 h [2] | also measured |
| --- | --- | --- | --- |
| Cc1ccc(-n2nc(C(C)(C)C)cc2NC(=O)Nc2ccc(Oc3ccnc(Nc4ccccc4)n3)c3ccccc23)cc1 [Example 1, 1-(3-(tert-Butyl)-1-(p-tolyl)-1H-pyrazol-5-yl)-3-(4-(2-(phenylamino)pyrimidin-4-yloxy)naphthalen-1-yl)urea] | −ve (−ve and +ve indicate the value is below and above respectively, the no significant effect threshold defined as 30% inhibition at 1 μg/mL at the time point indicated) | −ve (−ve and +ve indicate the value is below and above respectively, the no significant effect threshold defined as 30% inhibition at 1 μg/mL at the time point indicated) | Macrophage numbers in BALF % inhibition ([1]; 0.32 μg/mL intra-nasal): 11%; Neutrophil numbers in BALF % inhibition ([1]; 0.32 μg/mL intra-nasal): 12%; Macrophage numbers in BALF % inhibition ([1]; 1.6 μg/mL intra-nasal): 28%; Neutrophil numbers in BALF % inhibition ([1]; 1.6 μg/mL intra-nasal): 29%; Macrophage numbers in BALF % inhibition ([1]; 8.0 μg/mL intra-nasal): 43%; Neutrophil numbers in BALF % inhibition ([1]; 8.0 μg/mL intra-nasal): 41%; Macrophage numbers in BALF % inhibition ([1]; 40 μg/mL intra-nasal): 64%; Neutrophil numbers in BALF % inhibition ([1]; 40 μg/mL intra-nasal): 52% |
| COc1ccc(Nc2nccc(Oc3ccc(NC(=O)Nc4cc(C(C)(C)C)nn4-c4ccc(C)cc4)c4ccccc34)n2)cc1OC [Example 27, 1-(3-(tert-butyl)-1-(p-tolyl)-1H-pyrazol-5-yl)-3-(4-((2-((3,4-dimethoxyphenyl)amino)pyrimidin-4-yl)oxy)naphthalen-1-yl)urea] | +ve (−ve and +ve indicate the value is below and above respectively, the no significant effect threshold defined as 30% inhibition at 1 μg/mL at the time point indicated) | −ve (−ve and +ve indicate the value is below and above respectively, the no significant effect threshold defined as 30% inhibition at 1 μg/mL at the time point indicated) |  |
| COc1ccc(Nc2nccc(Oc3ccc(NC(=O)Nc4cc(C(C)(C)C)nn4-c4ccc(C)cc4)c4ccccc34)n2)cc1Cl [Example 28, 1-(3-(tert-butyl)-1-(p-tolyl)-1H-pyrazol-5-yl)-3-(4-((2-((3-chloro-4-methoxyphenyl)amino)pyrimidin-4-yl)oxy)naphthalen-1-yl)urea] | −ve (−ve and +ve indicate the value is below and above respectively, the no significant effect threshold defined as 30% inhibition at 1 μg/mL at the time point indicated) | −ve (−ve and +ve indicate the value is below and above respectively, the no significant effect threshold defined as 30% inhibition at 1 μg/mL at the time point indicated) |  |
| Cc1ccc(-n2nc(C(C)(C)C)cc2NC(=O)Nc2ccc(Oc3ccnc(Nc4ccc(O)c(F)c4)n3)c3ccccc23)cc1 [Example 29, 1-(3-(tert-butyl)-1-(p-tolyl)-1H-pyrazol-5-yl)-3-(4-((2-((3-fluoro-4-hydroxyphenyl)amino)pyrimidin-4-yl)oxy)naphthalen-1-yl)urea] | +ve (−ve and +ve indicate the value is below and above respectively, the no significant effect threshold defined as 30% inhibition at 1 μg/mL at the time point indicated) | −ve (−ve and +ve indicate the value is below and above respectively, the no significant effect threshold defined as 30% inhibition at 1 μg/mL at the time point indicated) |  |
| Cc1ccc(-n2nc(C(C)(C)C)cc2NC(=O)Nc2ccc(Oc3ccnc(Nc4ccc(O)cc4F)n3)c3ccccc23)cc1 [Example 30, 1-(3-(tert-butyl)-1-(p-tolyl)-1H-pyrazol-5-yl)-3-(4-((2-((2-fluoro-4-hydroxyphenyl)amino)pyrimidin-4-yl)oxy)naphthalen-1-yl)urea] | −ve (−ve and +ve indicate the value is below and above respectively, the no significant effect threshold defined as 30% inhibition at 1 μg/mL at the time point indicated) | −ve (−ve and +ve indicate the value is below and above respectively, the no significant effect threshold defined as 30% inhibition at 1 μg/mL at the time point indicated) |  |
| Cc1ccc(-n2nc(C(C)(C)C)cc2NC(=O)Nc2ccc(Oc3ccnc(Nc4ccc(O)cc4Cl)n3)c3ccccc23)cc1 [Example 31, 1-(3-(tert-butyl)-1-(p-tolyl)-1H-pyrazol-5-yl)-3-(4-((2-((2-chloro-4-hydroxyphenyl)amino)pyrimidin-4-yl)oxy)naphthalen-1-yl)urea] | −ve (−ve and +ve indicate the value is below and above respectively, the no significant effect threshold defined as 30% inhibition at 1 μg/mL at the time point indicated) | −ve (−ve and +ve indicate the value is below and above respectively, the no significant effect threshold defined as 30% inhibition at 1 μg/mL at the time point indicated) |  |
| Cc1ccc(-n2nc(C(C)(C)C)cc2NC(=O)Nc2ccc(Oc3ccnc(Nc4ccc(O)cc4O)n3)c3ccccc23)cc1 [Example 32, 1-(3-(tert-butyl)-1-(p-tolyl)-1H-pyrazol-5-yl)-3-(4-((2-((2,4-dihydroxyphenyl)amino)pyrimidin-4-yl)oxy)naphthalen-1-yl)urea] | −ve (−ve and +ve indicate the value is below and above respectively, the no significant effect threshold defined as 30% inhibition at 1 μg/mL at the time point indicated) | −ve (−ve and +ve indicate the value is below and above respectively, the no significant effect threshold defined as 30% inhibition at 1 μg/mL at the time point indicated) |  |
| COc1ccc(-n2nc(C(C)(C)C)cc2NC(=O)Nc2ccc(Oc3ccnc(Nc4ccc(O)cc4)n3)c3ccccc23)cc1 [Example 33, 1-(3-(tert-butyl)-1-(4-methoxyphenyl)-1H-pyrazol-5-yl)-3-(4-((2-((4-hydroxyphenyl)amino)pyrimidin-4-yl)oxy)naphthalen-1-yl)urea] | −ve (−ve and +ve indicate the value is below and above respectively, the no significant effect threshold defined as 30% inhibition at 1 μg/mL at the time point indicated) | −ve (−ve and +ve indicate the value is below and above respectively, the no significant effect threshold defined as 30% inhibition at 1 μg/mL at the time point indicated) |  |
| COCC(=O)Nc1cc(Oc2ccc(NC(=O)Nc3cc(C(C)(C)C)nn3-c3ccc(C)cc3)c3ccccc23)ccn1 [Reference Compound, N-(4-(4-(3-(3-tert-butyl-1-p-tolyl-1H-pyrazol-5-yl)ureido)naphthalen-1-yloxy)pyridin-2-yl)-2-methoxyacetamide, reference compound] | −ve (−ve and +ve indicate the value is below and above respectively, the no significant effect threshold defined as 30% inhibition at 1 μg/mL at the time point indicated) | +ve (−ve and +ve indicate the value is below and above respectively, the no significant effect threshold defined as 30% inhibition at 1 μg/mL at the time point indicated) |  |
